Assay results as given in ChEMBL document CHEMBL1153480, “Study on the potential anti-cancer activity of phosphonium and ammonium-based ionic liquids” (2009).

Key:
Format in all cases: functional
IGROV-1 [1] = test: cells; conditions: Homo sapiens
Description: Growth inhibition of human IGROV1 cells assessed as drug level required for 50% reduction in net protein increase by SRB assay relative to control

OVCAR-5 = test: cells; conditions: Homo sapiens
Description: Growth inhibition of human OVCAR5 cells assessed as drug level required for 50% reduction in net protein increase by SRB assay relative to control

RPMI-8226 [2] = test: cells; conditions: Homo sapiens
Description: Growth inhibition of human RPMI8226 cells assessed as cell growth at 10 uM by SRB assay

SNB-19 = test: cells; conditions: Homo sapiens
Description: Growth inhibition of human SNB19 cells assessed as drug level required for 50% reduction in net protein increase by SRB assay relative to control

OVCAR-3 [3] = test: cells; conditions: Homo sapiens
Description: Growth inhibition of human OVCAR-3 cells assessed as drug level required for 50% reduction in net protein increase by SRB assay relative to control

SR [4] = test: cells; conditions: Homo sapiens
Description: Growth inhibition of human SR cells assessed as drug level required for 50% reduction in net protein increase by SRB assay relative to control

IGROV-1 [5] = test: Cytotoxicity against human IGROV1 cells by SRB assay; conditions: read-out: LC50 (the source's name)
NCI-H226 [6] = test: cells; conditions: Homo sapiens
Description: Growth inhibition of human NCI-H226 cells assessed as cell growth at 10 uM by SRB assay

HL-60(TB) = test: cells; conditions: Homo sapiens
Description: Growth inhibition of human HL-60(TB) cells assessed as drug level required for 50% reduction in net protein increase by SRB assay relative to control

NCI/ADR-RES [7] = test: cells; conditions: Homo sapiens
Description: Growth inhibition of human NCI/ADR-RES cells assessed as drug level required for 50% reduction in net protein increase by SRB assay relative to control

SK-OV-3 [8] = test: cells; conditions: Homo sapiens
Description: Growth inhibition of human SKOV3 cells assessed as drug level required for 50% reduction in net protein increase by SRB assay relative to control

SW-620 [9] = test: Cytotoxicity against human SW620 cells by SRB assay; conditions: read-out: LC50 (the source's name)
HCT-15 = test: cells; conditions: Homo sapiens
Description: Growth inhibition of human HCT15 cells assessed as drug level required for 50% reduction in net protein increase by SRB assay relative to control

NCI-H23 [10] = test: Cytotoxicity against human NCI-H23 cells by SRB assay; conditions: read-out: LC50 (the source's name)
MDA-MB-468 = test: cells; conditions: Homo sapiens
Description: Growth inhibition of human MDA-MB-468 cells assessed as cell growth at 10 uM by SRB assay

SW-620 [11] = test: cells; conditions: Homo sapiens
Description: Growth inhibition of human SW620 cells assessed as cell growth at 10 uM by SRB assay

RPMI-8226 [12] = test: cells; conditions: Homo sapiens; remark: listed apart in the source
Description: Growth inhibition of human RPMI8226 cells assessed as drug level required for 50% reduction in net protein increase by SRB assay relative to control

SN12C [13] = test: cells; conditions: Homo sapiens
Description: Growth inhibition of human SN12C cells assessed as cell growth at 10 uM by SRB assay

M14 [14] = test: Cytotoxicity against human M14 cells by SRB assay; conditions: read-out: LC50 (the source's name)
A498 [15] = test: cells; conditions: Homo sapiens
Description: Growth inhibition of human A498 cells assessed as cell growth at 10 uM by SRB assay

A549 = test: cells; conditions: Homo sapiens
Description: Growth inhibition of human A549 cells assessed as drug level required for 50% reduction in net protein increase by SRB assay relative to control

RXF 393 = test: cells; conditions: Homo sapiens
Description: Growth inhibition of human RFX393 cells assessed as cell growth at 10 uM by SRB assay

UACC-62 = test: cells; conditions: Homo sapiens
Description: Growth inhibition of human UACC62 cells assessed as cell growth at 10 uM by SRB assay

SR [16] = test: cells; conditions: Homo sapiens; remark: listed apart in the source
Description: Growth inhibition of human SR cells assessed as cell growth at 10 uM by SRB assay

MDA-MB-435 = test: cells; conditions: Homo sapiens
Description: Growth inhibition of human MDA-MB-435 cells assessed as cell growth at 10 uM by SRB assay

KM12 [17] = test: Cytotoxicity against human KM12 cells by SRB assay; conditions: read-out: LC50 (the source's name)
DU-145 [18] = test: cells; conditions: Homo sapiens
Description: Growth inhibition of human DU145 cells assessed as cell growth at 10 uM by SRB assay

OVCAR-4 [19] = test: cells; conditions: Homo sapiens
Description: Growth inhibition of human OVCAR4 cells assessed as drug level required for 50% reduction in net protein increase by SRB assay relative to control

SF-539 = test: cells; conditions: Homo sapiens
Description: Growth inhibition of human SF539 cells assessed as cell growth at 10 uM by SRB assay

NCI-H226 [20] = test: cells; conditions: Homo sapiens; remark: listed apart in the source
Description: Growth inhibition of human NCI-H226 cells assessed as drug level required for 50% reduction in net protein increase by SRB assay relative to control

SF-268 [21] = test: cells; conditions: Homo sapiens
Description: Growth inhibition of human SF268 cells assessed as cell growth at 10 uM by SRB assay

MCF7 [22] = test: cells; conditions: Homo sapiens
Description: Growth inhibition of human MCF7 cells assessed as cell growth at 10 uM by SRB assay

cells [23] = conditions: Homo sapiens, CAKI
Description: Growth inhibition of human CAKI cells assessed as cell growth at 10 uM by SRB assay

786-0 [24] = test: cells; conditions: Homo sapiens
Description: Growth inhibition of human 786-0 cells assessed as drug level required for 50% reduction in net protein increase by SRB assay relative to control

HCT-116 [25] = test: cells; conditions: Homo sapiens
Description: Growth inhibition of human HCT116 cells assessed as drug level required for 50% reduction in net protein increase by SRB assay relative to control

HT-29 = test: Cytotoxicity against human HT-29 cells by SRB assay; conditions: read-out: LC50 (the source's name)
786-0 [26] = test: cells; conditions: Homo sapiens; remark: listed apart in the source
Description: Growth inhibition of human 786-0 cells assessed as cell growth at 10 uM by SRB assay

NCI/ADR-RES [27] = test: cells; conditions: Homo sapiens; remark: listed apart in the source
Description: Growth inhibition of human NCI/ADR-RES cells assessed as cell growth at 10 uM by SRB assay

SW-620 [28] = test: cells; conditions: Homo sapiens; remark: listed apart in the source
Description: Growth inhibition of human SW620 cells assessed as drug level required for 50% reduction in net protein increase by SRB assay relative to control

OVCAR-4 [29] = test: Cytotoxicity against human OVCAR4 cells by SRB assay; conditions: read-out: LC50 (the source's name)
HCC 2998 = test: cells; conditions: Homo sapiens
Description: Growth inhibition of human HCC2998 cells assessed as cell growth at 10 uM by SRB assay

NCI-H460 = test: Cytotoxicity against human NCI-H460 cells by SRB assay; conditions: read-out: LC50 (the source's name)
SNB-75 = test: cells; conditions: Homo sapiens
Description: Growth inhibition of human SNB75 cells assessed as cell growth at 10 uM by SRB assay

cells [30] = conditions: Homo sapiens, Hs-578T
Description: Growth inhibition of human Hs 578T cells assessed as cell growth at 10 uM by SRB assay

SF-295 [31] = test: Cytotoxicity against human SF295 cells by SRB assay; conditions: read-out: LC50 (the source's name)
SK-MEL-28 = test: cells; conditions: Homo sapiens
Description: Growth inhibition of human SK-MEL-28 cells assessed as cell growth at 10 uM by SRB assay

A498 [32] = test: cells; conditions: Homo sapiens; remark: listed apart in the source
Description: Growth inhibition of human A498 cells assessed as drug level required for 50% reduction in net protein increase by SRB assay relative to control

OVCAR-3 [33] = test: cells; conditions: Homo sapiens; remark: listed apart in the source
Description: Growth inhibition of human OVCAR-3 cells assessed as cell growth at 10 uM by SRB assay

CCRF-CEM = test: cells; conditions: Homo sapiens
Description: Growth inhibition of human CCRF-CEM cells assessed as cell growth at 10 uM by SRB assay

HCT-116 [34] = test: Cytotoxicity against human HCT116 cells by SRB assay; conditions: read-out: LC50 (the source's name)
OVCAR-4 [35] = test: cells; conditions: Homo sapiens; remark: listed apart in the source
Description: Growth inhibition of human OVCAR4 cells assessed as cell growth at 10 uM by SRB assay

SF-295 [36] = test: cells; conditions: Homo sapiens
Description: Growth inhibition of human SF295 cells assessed as cell growth at 10 uM by SRB assay

DU-145 [37] = test: Cytotoxicity against human DU145 cells by SRB assay; conditions: read-out: LC50 (the source's name)
HOP-62 = test: Cytotoxicity against human HOP62 cells by SRB assay; conditions: read-out: LC50 (the source's name)
NCI-H23 [38] = test: cells; conditions: Homo sapiens
Description: Growth inhibition of human NCI-H23 cells assessed as cell growth at 10 uM by SRB assay

UACC-257 = test: cells; conditions: Homo sapiens
Description: Growth inhibition of human UACC257 cells assessed as cell growth at 10 uM by SRB assay

SK-MEL-5 = test: cells; conditions: Homo sapiens
Description: Growth inhibition of human SK-MEL-5 cells assessed as cell growth at 10 uM by SRB assay

M14 [39] = test: cells; conditions: Homo sapiens
Description: Growth inhibition of human M14 cells assessed as cell growth at 10 uM by SRB assay

PC-3 = test: cells; conditions: Homo sapiens
Description: Growth inhibition of human PC3 cells assessed as cell growth at 10 uM by SRB assay

SF-268 [40] = test: cells; conditions: Homo sapiens; remark: listed apart in the source
Description: Growth inhibition of human SF268 cells assessed as drug level required for 50% reduction in net protein increase by SRB assay relative to control

COLO 205 = test: Cytotoxicity against human COLO205 cells by SRB assay; conditions: read-out: LC50 (the source's name)
KM12 [41] = test: cells; conditions: Homo sapiens
Description: Growth inhibition of human KM12 cells assessed as drug level required for 50% reduction in net protein increase by SRB assay relative to control

SK-OV-3 [42] = test: Cytotoxicity against human SKOV3 cells by SRB assay; conditions: read-out: LC50 (the source's name)
SK-OV-3 [43] = test: cells; conditions: Homo sapiens; remark: listed apart in the source
Description: Growth inhibition of human SKOV3 cells assessed as cell growth at 10 uM by SRB assay

SN12C [44] = test: cells; conditions: Homo sapiens; remark: listed apart in the source
Description: Growth inhibition of human SN12C cells assessed as drug level required for 50% reduction in net protein increase by SRB assay relative to control

MCF7 [45] = test: cells; conditions: Homo sapiens; remark: listed apart in the source
Description: Growth inhibition of human MCF7 cells assessed as drug level required for 50% reduction in net protein increase by SRB assay relative to control

786-0 [46] = test: cells; conditions: Homo sapiens, read-out: LC50 (the source's name)
Description: Cytotoxicity against human 786-0 cells by SRB assay

K562 = test: cells; conditions: Homo sapiens
Description: Growth inhibition of human K562 cells assessed as drug level required for 50% reduction in net protein increase by SRB assay relative to control

M14 [47] = test: cells; conditions: Homo sapiens; remark: listed apart in the source
Description: Growth inhibition of human M14 cells assessed as drug level required for 50% reduction in net protein increase by SRB assay relative to control

LOX IMVI = test: cells; conditions: Homo sapiens
Description: Growth inhibition of human LOXIMVI cells assessed as cell growth at 10 uM by SRB assay

NCI-H23 [48] = test: cells; conditions: Homo sapiens; remark: listed apart in the source
Description: Growth inhibition of human NCI-H23 cells assessed as drug level required for 50% reduction in net protein increase by SRB assay relative to control

SF-295 [49] = test: cells; conditions: Homo sapiens; remark: listed apart in the source
Description: Growth inhibition of human SF295 cells assessed as drug level required for 50% reduction in net protein increase by SRB assay relative to control

CCCCCCCC[N+](C)(CCCCCCCC)CCCCCCCC.O=S(=O)([N-]S(=O)(=O)C(F)(F)F)C(F)(F)F
GI50 (IGROV-1 [1]): 388 nM | GI50 (OVCAR-5): 1240 nM | growth at 10 µM (RPMI-8226 [2]): 44.2% | GI50 (SNB-19): 587 nM | GI50 (OVCAR-3 [3]): 315 nM | GI50 (SR [4]): 162 nM | CC50 (IGROV-1 [5]): > 100000 nM | growth at 10 µM (NCI-H226 [6]): -86.2% | GI50 (HL-60(TB)): 173 nM | GI50 (NCI/ADR-RES [7]): 1680 nM | GI50 (SK-OV-3 [8]): 565 nM | CC50 (SW-620 [9]): 10000 nM | GI50 (HCT-15): 993 nM | CC50 (NCI-H23 [10]): 6330 nM | growth at 10 µM (MDA-MB-468): -90.1% | growth at 10 µM (SW-620 [11]): -100% | GI50 (RPMI-8226 [12]): 46 nM | growth at 10 µM (SN12C [13]): -86.5% | CC50 (M14 [14]): 9190 nM | growth at 10 µM (A498 [15]): -100% | GI50 (A549): 1900 nM | growth at 10 µM (RXF 393): -100% | growth at 10 µM (UACC-62): -94.5% | growth at 10 µM (SR [16]): 28.1% | growth at 10 µM (MDA-MB-435): -90.8% | CC50 (KM12 [17]): 5310 nM | growth at 10 µM (DU-145 [18]): -100% | GI50 (OVCAR-4 [19]): 309 nM | growth at 10 µM (SF-539): -100% | GI50 (NCI-H226 [20]): 478 nM | growth at 10 µM (SF-268 [21]): -100% | growth at 10 µM (MCF7 [22]): -100% | growth at 10 µM (cells [23]): -98.6% | GI50 (786-0 [24]): 415 nM | GI50 (HCT-116 [25]): 319 nM | CC50 (HT-29): 5170 nM | growth at 10 µM (786-0 [26]): -95.8% | growth at 10 µM (NCI/ADR-RES [27]): -100% | GI50 (SW-620 [28]): 378 nM | CC50 (OVCAR-4 [29]): 5800 nM | growth at 10 µM (HCC 2998): -98% | CC50 (NCI-H460): 4100 nM | growth at 10 µM (SNB-75): -100% | growth at 10 µM (cells [30]): -66.7% | CC50 (SF-295 [31]): 4570 nM | growth at 10 µM (SK-MEL-28): -100% | GI50 (A498 [32]): 1820 nM | growth at 10 µM (OVCAR-3 [33]): -100% | growth at 10 µM (CCRF-CEM): 85.7% | CC50 (HCT-116 [34]): 9900 nM | growth at 10 µM (OVCAR-4 [35]): -94.1% | growth at 10 µM (SF-295 [36]): -94.8% | CC50 (DU-145 [37]): 4440 nM | CC50 (HOP-62): 7770 nM | growth at 10 µM (NCI-H23 [38]): -97% | growth at 10 µM (UACC-257): -95.2% | growth at 10 µM (SK-MEL-5): -100% | growth at 10 µM (M14 [39]): -91.7% | growth at 10 µM (PC-3): -91.3% | GI50 (SF-268 [40]): 493 nM | CC50 (COLO 205): > 100000 nM | GI50 (KM12 [41]): 310 nM | CC50 (SK-OV-3 [42]): 5120 nM | growth at 10 µM (SK-OV-3 [43]): -97.8% | GI50 (SN12C [44]): 367 nM | GI50 (MCF7 [45]): 317 nM | CC50 (786-0 [46]): 5020 nM | GI50 (K562): 186 nM | GI50 (M14 [47]): 453 nM | growth at 10 µM (LOX IMVI): -74.7% | GI50 (NCI-H23 [48]): 308 nM | GI50 (SF-295 [49]): 333 nM
